Results from patent US20250163104A1, “MACROCYCLIC IMMUNOMODULATORS” (priority 2021, published 2025).
Where a SMILES comes first, the peptide text is derived from it. Bridges are numbered along the chain shown (N, C = ends). [ ]: non-standard residue; d: D form. The star is where a group is joined. ξ: configuration not given here. Ala(4-isoquinolinyl) = N[C@@H](Cc1cncc2ccccc12)C(=O)O; Phe(4-COOH) = N[C@@H](Cc1ccc(C(=O)O)cc1)C(=O)O; Bip = N[C@@H](Cc1ccc(-c2ccccc2)cc1)C(=O)O; Phe(3-Me) = Cc1cccc(C[C@H](N)C(=O)O)c1; Val(3-OH) = CC(C)(O)[C@H](N)C(=O)O; 4Pal = N[C@@H](Cc1ccncc1)C(=O)O; 2Thi = N[C@@H](Cc1cccs1)C(=O)O; Cha = N[C@@H](CC1CCCCC1)C(=O)O; Cit = NC(=O)NCCC[C@H](N)C(=O)O; Gly(cPr) = N[C@H](C(=O)O)C1CC1; Ile(3ξ) = CCC(C)[C@H](N)C(=O)O; Thr(3ξ) = CC(O)[C@H](N)C(=O)O; dOrn = NCCC[C@@H](N)C(=O)O; Carboxymethyl = O=C(O)C*; Orn = NCCC[C@H](N)C(=O)O; Dab = NCC[C@H](N)C(=O)O; Dap = NC[C@H](N)C(=O)O

Each compound was assayed against T1, human PD-1 / PD-L1-Ig binding on Jurkat cell line over-expressing human PD-1 (Jurkat-PD-1) (Homo sapiens, UniProt Q15116) (assay: Jurkat-PD-1 Cell Binding High-Content Screening Assay (CBA)). Details: Jurkat HPD1_PDL1 IC50, Jurkat-PD-1 cells, PE-labeled PD-L1-Ig 20 nM final.
T1 construct: expressed in transfected cells; host or cells: Jurkat
T1 sequence (Q15116 25-288): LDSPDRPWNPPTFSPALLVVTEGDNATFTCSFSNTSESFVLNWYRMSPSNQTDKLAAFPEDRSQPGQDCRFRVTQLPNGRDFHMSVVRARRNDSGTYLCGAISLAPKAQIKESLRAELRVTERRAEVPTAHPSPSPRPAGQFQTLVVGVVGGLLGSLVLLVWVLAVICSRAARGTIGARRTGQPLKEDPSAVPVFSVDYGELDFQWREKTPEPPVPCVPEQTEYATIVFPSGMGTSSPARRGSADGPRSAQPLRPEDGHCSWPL
Type: cell-based
Outline: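 Cell-bound PE-labeled PD-L1-Ig (20 nM final, 1 h) measured by high-content imaging after fixation and Hoechst 33342 counterstain. Compound was applied first for 2 h at 37° C. to Jurkat cells over-expressing human PD-1 in DMEM with 10% FCS.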
With `CC(C)C[C@@H]1NC(=O)[C@H](Cc2c[nH]c3ccccc23)NC(=O)[C@H](CC(=O)O)NC(=O)[C@H](Cc2ccc(O)cc2)NC(=O)[C@H](Cc2ccccc2)NC(=O)CSC[C@@H](C(=O)NCC(N)=O)NC(=O)[C@H]([C@@H](C)O)NC(=O)[C@H](C(C)C)NC(=O)[C@H](CC(C)C)NC(=O)[C@H](CC(N)=O)NC(=O)[C@@H](C)NC(=O)[C@H](CN)NC(=O)[C@H](C(C)C)NC(=O)[C@H](Cc2ccc(-c3ccccc3)cc2)NC1=O` [Compound 1074] ({CH2CO}-FYDWL[Bip]V[Dap][dA]NLVTCG-NH2; thioether N-14) the IC50 was 124 nM.
In the case of `CC[C@H](C)[C@@H]1NC(=O)[C@H](Cc2ccc(-c3ccccc3)cc2)NC(=O)[C@H](C(C)C)NC(=O)[C@H](Cc2cccc(C)c2)NC(=O)[C@H](CC(=O)O)NC(=O)[C@H](Cc2ccc(OCC(=O)O)cc2)NC(=O)[C@H](Cc2cccnc2)NC(=O)CSC[C@@H](C(=O)N[C@@H](C)C(N)=O)NC(=O)[C@H]([C@@H](C)O)NC(=O)[C@H](C(C)C)NC(=O)[C@H](CC(C)C)NC(=O)[C@H](CCN)NC(=O)[C@@H](CC(C)C)NC(=O)[C@H](CCCN)NC1=O` [Compound 1224], the IC50 is reported as 11.3 nM.

Same assay, conditions: Jurkat-PD-1 cells, PE-labeled PD-L1-Ig 20 nM final; read-out: Jurkat HPD1_PDL1 IC50
`CC(C)C[C@H]1NC(=O)[C@H](CCCN)NC(=O)[C@H](CCC(=O)O)NC(=O)[C@H](Cc2ccc(-c3ccccc3)cc2)NC(=O)[C@H](C(C)C)NC(=O)[C@H](Cc2cccs2)NC(=O)[C@H](CC(=O)O)NC(=O)[C@H](Cc2ccc(OCC(=O)O)cc2)NC(=O)[C@H](CN)NC(=O)CSC[C@@H](C(=O)N[C@@H](C)C(N)=O)NC(=O)[C@H]([C@@H](C)O)NC(=O)[C@H](C(C)C)NC(=O)[C@H](CC2CCCCC2)NC(=O)[C@H](CCN)NC1=O` [Compound 2153] ({CH2CO}-[Dap]Y(Carboxymethyl)D[2Thi]V[Bip]E[Orn][dL][Dab][Cha]VTCA-NH2; thioether N-14) was tested, and the IC50 was 10.1 nM.
For `CC[C@H](C)[C@@H]1NC(=O)[C@H](Cc2ccc(-c3ccccc3)cc2)NC(=O)[C@H](C2CC2)NC(=O)[C@H](Cc2c[nH]c3ccccc23)NC(=O)[C@H](CC(=O)O)NC(=O)[C@H](Cc2ccc(OCC(=O)O)cc2)NC(=O)[C@H](CN)NC(=O)CSC[C@@H](C(=O)N[C@@H](C)C(N)=O)NC(=O)[C@H]([C@@H](C)O)NC(=O)[C@H](C(C)C)NC(=O)[C@H](CC2CCCCC2)NC(=O)[C@H](CCN)NC(=O)[C@@H](CC(C)C)NC(=O)[C@H](CCCN)NC1=O` [Compound 1724] ({CH2CO}-[Dap]Y(Carboxymethyl)DW[Gly(cPr)][Bip]I[Orn][dL][Dab][Cha]VTCA-NH2; thioether N-14), the IC50 was 17.7 nM.
`CC[C@H](C)[C@@H]1NC(=O)[C@H](Cc2ccc(-c3ccccc3)cc2)NC(=O)[C@H](C(C)C)NC(=O)[C@H](Cc2c[nH]c3ccccc23)NC(=O)[C@H](CC(=O)O)NC(=O)[C@H](Cc2ccc(O)cc2)NC(=O)[C@H](CC(N)=O)NC(=O)CSC[C@@H](C(=O)NCC(N)=O)NC(=O)[C@H]([C@@H](C)O)NC(=O)[C@H](C(C)C)NC(=O)[C@H](CC(C)C)NC(=O)[C@H](CCCCN)NC(=O)[C@@H](CC(C)C)NC(=O)[C@H](CCCN)NC1=O` [Compound 1131] ({CH2CO}-NYDWV[Bip]I[Orn][dL]KLVTCG-NH2; thioether N-14) showed an IC50 of 24.8 nM.
`CCC(C)[C@@H]1NC(=O)[C@H](Cc2ccc(-c3ccccc3)cc2)NC(=O)[C@H](C(C)C)NC(=O)[C@H](Cc2c[nH]c3ccccc23)NC(=O)[C@H](CC(=O)O)NC(=O)[C@H](Cc2ccncc2)NC(=O)[C@H](Cc2ccncc2)NC(=O)CSC[C@@H](C(=O)N[C@@H](C)C(N)=O)NC(=O)[C@H]([C@@H](C)O)NC(=O)[C@H](C(C)C)NC(=O)[C@H](CC2CCCCC2)NC(=O)[C@H](CCN)NC(=O)[C@@H](CC(C)C)NC(=O)[C@H](CCCN)NC1=O` (stereo partly drawn) [Compound 2238] ({CH2CO}-[4Pal][4Pal]DWV[Bip][Ile(3ξ)][Orn][dL][Dab][Cha]VTCA-NH2; thioether N-14) showed an IC50 of 18.2 nM.
Compound `CC(C)C[C@H]1NC(=O)[C@H](CCCN)NC(=O)[C@H](CCCNC(N)=O)NC(=O)[C@H](Cc2ccc(-c3ccccc3)cc2)NC(=O)[C@H](C(C)C)NC(=O)[C@H](Cc2c[nH]c3ccccc23)NC(=O)[C@H](CC(=O)O)NC(=O)[C@H](Cc2cncc3ccccc23)NC(=O)[C@H](CN)NC(=O)CSC[C@@H](C(=O)N[C@@H](C)C(N)=O)NC(=O)[C@H]([C@@H](C)O)NC(=O)[C@H](C(C)C)NC(=O)[C@H](CC2CCCCC2)NC(=O)[C@H](CCN)NC1=O` [Compound 2118] ({CH2CO}-[Dap][Ala(4-isoquinolinyl)]DWV[Bip][Cit][Orn][dL][Dab][Cha]VTCA-NH2; thioether N-14) has an IC50 of 62.6 nM.
For `CC[C@H](C)[C@@H]1NC(=O)[C@H](Cc2ccc(-c3ccccc3)cc2)NC(=O)[C@H](C(C)C)NC(=O)[C@H](Cc2cccc(C)c2)NC(=O)[C@H](CC(=O)O)NC(=O)[C@H](Cc2ccc(C(=O)O)cc2)NC(=O)[C@H](Cc2ccncc2)NC(=O)CSC[C@@H](C(=O)N[C@@H](C)C(N)=O)NC(=O)[C@H]([C@@H](C)O)NC(=O)[C@H](C(C)C)NC(=O)[C@H](CC(C)C)NC(=O)[C@H](CCN)NC(=O)[C@@H](CC(C)C)NC(=O)[C@H](CCCN)NC1=O` [Compound 1180], the IC50 was 8.9 nM.
`CCC(C)[C@@H]1NC(=O)[C@H](Cc2ccc(-c3ccccc3)cc2)NC(=O)[C@H](CC(C)C)NC(=O)[C@H](Cc2c[nH]c3ccccc23)NC(=O)[C@H](CC(=O)O)NC(=O)[C@H](Cc2ccc(OCC(=O)O)cc2)NC(=O)[C@H](C(C)O)NC(=O)CSC[C@@H](C(=O)N[C@@H](CC(N)=O)C(=O)O)NC(=O)[C@H](CO)NC(=O)[C@H](C(C)C)NC(=O)[C@H](CC(C)C)NC(=O)[C@H](CCN)NC(=O)[C@@H](CC(C)C)NC(=O)[C@H](CCCN)NC1=O` (stereo partly drawn) [Compound 2577] ({CH2CO}-[Thr(3ξ)]Y(Carboxymethyl)DWL[Bip][Ile(3ξ)][Orn][dL][Dab]LVSCN-OH; thioether N-14) was tested, and the IC50 was 13.1 nM.
With `CC(C)C[C@@H]1NC(=O)[C@H](Cc2c[nH]c3ccccc23)NC(=O)[C@H](CC(=O)O)NC(=O)[C@H](Cc2ccc(O)cc2)NC(=O)[C@H](Cc2ccccc2)NC(=O)CSC[C@@H](C(=O)N[C@@H](C)C(N)=O)NC(=O)[C@H](CO)NC(=O)[C@H](C(C)C)NC(=O)[C@H](CC(C)C)NC(=O)[C@H](CC(N)=O)NC(=O)[C@@H](C)NC(=O)[C@@H](CCCN)NC(=O)[C@H](C(C)C)NC(=O)[C@H](Cc2ccc(-c3ccccc3)cc2)NC1=O` [Compound 2001] ({CH2CO}-FYDWL[Bip]V[dOrn][dA]NLVSCA-NH2; thioether N-14) the IC50 was 42.1 nM.
Work on `CCC(C)[C@@H]1NC(=O)[C@H](Cc2ccc(-c3ccccc3)cc2)NC(=O)[C@H](C(C)C)NC(=O)[C@H](Cc2cccc(C)c2)NC(=O)[C@H](CC(=O)O)NC(=O)[C@H](Cc2ccc(C(=O)O)cc2)NC(=O)[C@H](Cc2ccncc2)NC(=O)CSC[C@@H](C(N)=O)NC(=O)[C@H](CC(N)=O)NC(=O)[C@H](C(C)C)NC(=O)[C@H](CC2CCCCC2)NC(=O)[C@H](CCN)NC(=O)[C@@H](CC(C)C)NC(=O)[C@H](CCCN)NC1=O` (stereo partly drawn) [Compound 2279] ({CH2CO}-[4Pal][Phe(4-COOH)]D[Phe(3-Me)]V[Bip][Ile(3ξ)][Orn][dL][Dab][Cha]VNC-NH2; thioether N-14) yielded an IC50 of 15.6 nM.
Work on `CC(C)C[C@H]1NC(=O)[C@H](CCCN)NC(=O)[C@H](C(C)C)NC(=O)[C@H](Cc2ccc(-c3ccccc3)cc2)NC(=O)[C@H](C(C)C)NC(=O)[C@H](Cc2c[nH]c3ccccc23)NC(=O)[C@H](CC(=O)O)NC(=O)[C@H](Cc2ccc(OCC(=O)O)cc2)NC(=O)[C@H](Cc2cnc[nH]2)NC(=O)CSC[C@@H](C(=O)N[C@H](C)C(N)=O)NC(=O)[C@H](C(C)O)NC(=O)[C@H](C(C)(C)O)NC(=O)[C@H](CC2CCCCC2)NC(=O)[C@H](CCN)NC1=O` (stereo partly drawn) [Compound 2659] ({CH2CO}-HY(Carboxymethyl)DWV[Bip]V[Orn][dL][Dab][Cha][Val(3-OH)][Thr(3ξ)]C[dA]-NH2; thioether N-14) yielded an IC50 of 11.8 nM.
With `CCC(C)[C@@H]1NC(=O)[C@H](Cc2ccc(-c3ccccc3)cc2)NC(=O)[C@H](CC(C)C)NC(=O)[C@H](Cc2c[nH]c3ccccc23)NC(=O)[C@H](CC(=O)O)NC(=O)[C@H](Cc2ccc(OCC(=O)O)cc2)NC(=O)[C@H](Cc2ccc(OCC(=O)O)cc2)NC(=O)CSC[C@@H](C(=O)N[C@@H](CC(N)=O)C(=O)O)NC(=O)[C@H](CO)NC(=O)[C@H](C(C)C)NC(=O)[C@H](CC(C)C)NC(=O)[C@H](CCN)NC(=O)[C@@H](CC(C)C)NC(=O)[C@H](CCCN)NC1=O` (stereo partly drawn) [Compound 2576] ({CH2CO}-Y(Carboxymethyl)Y(Carboxymethyl)DWL[Bip][Ile(3ξ)][Orn][dL][Dab]LVSCN-OH; thioether N-14) the IC50 was 12.4 nM.
`Cc1cccc(C[C@@H]2NC(=O)[C@H](CC(=O)O)NC(=O)[C@H](Cc3ccc(OCC(=O)O)cc3)NC(=O)[C@H](CN)NC(=O)CSC[C@@H](C(=O)N[C@@H](CCC(=O)O)C(=O)O)NC(=O)[C@H]([C@@H](C)O)NC(=O)[C@H](C(C)C)NC(=O)[C@H](CC3CCCCC3)NC(=O)[C@H](CCN)NC(=O)[C@@H](CC(C)C)NC(=O)[C@H](CCCN)NC(=O)[C@H](CCCNC(N)=O)NC(=O)[C@H](Cc3ccc(-c4ccccc4)cc3)NC(=O)[C@H](C(C)C)NC2=O)c1` [Compound 1301] ({CH2CO}-[Dap]Y(Carboxymethyl)D[Phe(3-Me)]V[Bip][Cit][Orn][dL][Dab][Cha]VTCE-OH; thioether N-14) was tested, and the IC50 was 5.9 nM.
In the case of `CC(C)C[C@H]1NC(=O)[C@H](CCCN)NC(=O)[C@H](C(C)C)NC(=O)[C@H](Cc2ccc(-c3ccccc3)cc2)NC(=O)[C@H](C(C)C)NC(=O)[C@H](Cc2c[nH]c3ccccc23)NC(=O)[C@H](CC(=O)O)NC(=O)[C@H](Cc2ccc(OCC(=O)O)cc2)NC(=O)[C@H](CN)NC(=O)CSC[C@@H](C(=O)N[C@@H](C)C(N)=O)NC(=O)[C@H]([C@@H](C)O)NC(=O)[C@H](C(C)C)NC(=O)[C@H](CC2CCCCC2)NC(=O)[C@H](CC(=O)O)NC1=O` [Compound 1521] ({CH2CO}-[Dap]Y(Carboxymethyl)DWV[Bip]V[Orn][dL]D[Cha]VTCA-NH2; thioether N-14), the IC50 is reported as 17.7 nM.
